Laboratory results from US4451485A, “Treatment of cardio-vascular diseases with 3-(2,2,2-trimethylhydrazinium) propionate dihydrate” (Institu Organicheskogo Sinteza Akademii Nauk Latviiskoi SSR, priority 1981, dated 1984).

Columns and labels:
[1] = Coronary circulation and hemodynamics in narcotized cats; assay type: in vivo
Method: In acute experiments on narcotized cats with a mass of from 2.9 to 4.1 kg under artificial respiration, arterial pressure was recorded in the common carotide artery, central venous pressure in the right auricle, volume rate of blood flow in the ascending aortic arch and volume rate of the coronary blood flow. At the same time, there was recorded the content of oxyhemoglobin in venous coronary blood.

[2] = Strophanthin arrhythmia in guinea pigs (450 μg/kg); assay type: in vivo; settings: for ED50: Cavia porcellus, read-out: ED50, Strophanthin arrhythmia in guinea pigs
Method: As the third model of arrhythmia, there was used strophanthin arrhythmia in guinea pigs. […] Against the background of arrhythmia the test preparations were administered intravenously.

[3] = Variation of arrhythmogenic and lethal doses of CaCl2 in mice; assay type: in vivo, white mice; settings: for Effect on arrhythmogenic and lethal doses of calcium chloride: single intraperitoneal administration
Method: Thus, the effect of the preparation according to the present invention has been studied relative to the variation of arrhythmogenic and lethal doses of calcium chloride. An experiment was carried out on white mice of both sexes weighing 19-28 g which were narcotized by urethane and an ECG was remetered in transthoracic lead. A 2% solution of calcium chloride was administered to the test animals into the tail vein at a constant rate (0.1 ml for 15 seconds). The average dose of calcium chloride causing the appearance of arrhythmia and heart arrest was determined. In the test groups, the studied compounds were administered 45, 60, 120, 180 and 240 minutes before the beginning of administration of calcium chloride (Table 1).
Variation of arrthythmogenic and lethal doses of CaCl2
with time after administration of the studied
pharmaceutical compositions in experiments on mice.

[4] = in vivo; set-up: species or system white mice; settings: mouse, in vivo; for LD50: white mice, intravenous (Table 2)
[5] = Threshold of electric fibrillation of auricles and ventricles in cats; assay type: in vivo; settings: for ED50: Felis catus, read-out: ED50, electric irritation of cat's heart; for Effect on fibrillation threshold relative to the composition of the invention: novocainamide 40-55 mg/kg, quinidine and lidocain lower doses
Method: Furthermore, the preparation according to the present invention was tested for specific antiarrhythmic and antianginal effects. […] The effect of the novel pharmaceutical composition according to the present invention was studied on cats weighing 2.9-3.6 kg. The preparation was used as a 10% aqueous solution containing 3-(2,2,2-trimethylhydrazinium)propionate for the determination of the threshold value of electric fibrillation of auricles and ventricles. Under artificial respiration after opening of the thorax and pericardium, needle-like electrodes were applied to the right auricula and apex of the left ventricle. The irritation was effected by square pulses of 1 m.s., 15 st/s.
(§1) For the comparison of preparations, as the criterion of the range of therapeutic effect, there was used the ratio of the half-lethal dose to the half-effective dose (LD50 /ED50) which was referred to as the antiarrhythmic index. […] The comparative study of the antiarrhythmic activity of pharmaceutical preparations using an acotine model of arrhythmia was effected in experiments on white rats weighing 190-240 g. The test preparations were administered intraperitoneally 10-40 minutes before administration of aconitine.

[6] = Aconitine model of arrhythmia in white rats; assay type: in vivo; settings: for ED50: Rattus norvegicus, ip, read-out: ED50, aconitine arrhythmia in rats; for Antiarrhythmic index LD50/ED50, aconitine arrhythmia in rats: rat, in vivo
Method: as §1

[7] = in the organism; cited from earlier work
[8] = 10 mg/kg intraperitoneal, 60 minutes
[9] = 10 mg/kg intraperitoneal, 120 minutes
[10] = 30 mg/kg intraperitoneal, 60 minutes
[11] = 30 mg/kg intraperitoneal, 120 minutes
[12] = 3 mg/kg intraperitoneal, 45 minutes
[13] = 3 mg/kg intraperitoneal, 60 minutes
[14] = 3 mg/kg intraperitoneal, 120 minutes
[15] = 10 mg/kg intraperitoneal, 180 minutes

Q: Which results are given for `CCOC(=O)COc1ccc2c(C)c(CCN(CC)CC)c(=O)oc2c1` [Carbocromene, reference compound]?
A: Increase duration ([1]; 0.5 mg/kg): 35 min; Volume rate, percent of increase ([1]; 0.5 mg/kg): 30%; Change of heart output ([1]; 2 mg/kg): +5 - 15%; Increase duration ([1]; 2 mg/kg): 50 min; Volume rate, percent of increase ([1]; 2 mg/kg): 45%; Change of arterial pressure ([1]; 5 mg/kg): 0 - +7%; Change of central venous pressure ([1]; 5 mg/kg): 5 - 10%; Change of heart output ([1]; 5 mg/kg): +5 - 15%; Increase duration ([1]; 5 mg/kg): 70 min; Volume rate, percent of increase ([1]; 5 mg/kg): 55%; Saturation of the venous blood of coronary sinus with oxygen ([1]; in vivo): lastingly increase saturation of the venous blood of coronary sinus with oxygen

Q: What does the source list for `CCN(CC)CC(=O)Nc1c(C)cccc1C` [Lidocain]?
A: ED50 ([2]; iv): 3.8 ± 0.5 mg/kg; Duration for which Strophanthin-induced arrhythmia is cut short / ECG improved ([2]; intravenous): 0.5 to 3 min; Number of animals (experiments) with effect on arrhythmia ([2]; intravenous): 4 out of 7

Q: Which results are given for `CCN(CC)CCNC(=O)c1ccc(N)cc1` [Novocainamide]?
A: Arrhythmogenic dose of CaCl2 [3, 8]: 114.16 mg/kg; Lethal dose of CaCl2 [3, 8]: 120.8 mg/kg; Arrhythmogenic dose of CaCl2 [3, 9]: 86.85 mg/kg; Lethal dose of CaCl2 [3, 9]: 104.5 mg/kg; Arrhythmogenic dose of CaCl2 [3, 10]: 125.16 mg/kg; Lethal dose of CaCl2 [3, 10]: 143 mg/kg; Arrhythmogenic dose of CaCl2 [3, 11]: 93.16 mg/kg; Lethal dose of CaCl2 [3, 11]: 114.9 mg/kg; Effect on arrhythmogenic and lethal doses of calcium chloride [3]: more pronounced increase of the arrhythmogenic dose of calcium chloride; LD50 [4]: 112 mg/kg; ED50 ([5]; iv): 46 ± 6.3 mg/kg; Antiarrhythmic index LD50/ED50, electric irritation of cat's heart ([5]; intravenous): 2; Antiarrhythmic index LD50/ED50, electric irritation of cat's heart ([5]; intravenous, listed as novocainamide): 2.3; Effect on fibrillation threshold relative to the composition of the invention [5]: the same effect; ED50 [6]: 45 ± 5 mg/kg; Antiarrhythmic index LD50/ED50, aconitine arrhythmia in rats [6]: 2.5; ED50 ([2]; intravenous): 55 ± 7.3 mg/kg; Duration for which Strophanthin-induced arrhythmia is cut short / ECG improved ([2]; intravenous): 5 to 20 min

Q: With `C=C[C@H]1C[N@@]2CC[C@H]1C[C@@H]2[C@@H](O)c1ccnc2ccc(OC)cc12` [Quinidine] as the compound, how does the “Arrhythmogenic dose of CaCl2” value [3, 12] read?
A: 128.9 mg/kg

Q: What about the “Lethal dose of CaCl2” value [3, 12] of the same compound?
A: 147.7 mg/kg

Q: And the “Arrhythmogenic dose of CaCl2” value [3, 13]?
A: 104.5 mg/kg

Q: And the “Lethal dose of CaCl2” value [3, 13]?
A: 117.8 mg/kg

Q: What about the “Arrhythmogenic dose of CaCl2” value [3, 14] of the same compound?
A: 87.47 mg/kg

Q: What about the “Lethal dose of CaCl2” value [3, 14] of the same compound?
A: 103.65 mg/kg

Q: What about the “Arrhythmogenic dose of CaCl2” value ([3]; 10 mg/kg intraperitoneal, 45 minutes before CaCl2, control 85) of the same compound?
A: 120.84 mg/kg

Q: What about the “Lethal dose of CaCl2” value ([3]; 10 mg/kg intraperitoneal, 45 minutes before CaCl2, control 100.9) of the same compound?
A: 138.54 mg/kg

Q: And the “Arrhythmogenic dose of CaCl2” value [3, 8]?
A: 119.48 mg/kg

Q: What about the “Lethal dose of CaCl2” value [3, 8] of the same compound?
A: 126.2 mg/kg

Q: What about the “Arrhythmogenic dose of CaCl2” value [3, 9] of the same compound?
A: 94.5 mg/kg

Q: What about the “Lethal dose of CaCl2” value [3, 9] of the same compound?
A: 117.6 mg/kg

Q: What about the “Arrhythmogenic dose of CaCl2” value [3, 15] of the same compound?
A: 88.7 mg/kg

Q: And the “Lethal dose of CaCl2” value [3, 15]?
A: 115.8 mg/kg

Q: What about the “Effect on arrhythmogenic and lethal doses of calcium chloride” value [3] of the same compound?
A: more pronounced increase of the arrhythmogenic dose of calcium chloride

Q: And the “Toxicity relative to the composition of the invention” value [4]?
A: substantially higher toxicity

Q: And the LD50 [4]?
A: 68 mg/kg

Q: And the ED50 ([5]; intravenous)?
A: 2.6 ± 0.5 mg/kg

Q: What about the “Antiarrhythmic index LD50/ED50, electric irritation of cat's heart” value ([5]; intravenous) of the same compound?
A: 26

Q: What about the “Effect on fibrillation threshold relative to the composition of the invention” value [5] of the same compound?
A: exerting their effect at lower doses

Q: What about the ED50 [6] of the same compound?
A: 4.3 ± 0.6 mg/kg

Q: What about the “Antiarrhythmic index LD50/ED50, aconitine arrhythmia in rats” value [6] of the same compound?
A: 16

Q: And the ED50 ([2]; intravenous)?
A: 2.3 ± 0.4 mg/kg

Q: And the “Antiarrhythmic index LD50/ED50, Strophanthin arrhythmia in guinea pigs” value ([2]; guinea pig, in vivo)?
A: 30

Q: And the “Duration for which Strophanthin-induced arrhythmia is cut short / ECG improved” value ([2]; intravenous)?
A: 0.5 to 3 min

Q: What about the “Number of animals (experiments) with effect on arrhythmia” value ([2]; intravenous) of the same compound?
A: 4 out of 8

Q: With `C[N+](C)(C)CCCC(=O)[O-]` [γ-butyrobetain] as the compound, how does the Metabolism into carnitine [7] read?
A: rapidly metabolized
